Assay results reported in patent publication US7659113B2 (priority 2002, dated 2010).
Entries after “also recorded” stand apart in the source; their conditions may differ.

Legend:
[1] = test system: FPV HA/M2 pseudotyped SIN-6.1CZW vector; assay type: cell-based
influenza virus = conditions: cited from earlier work
wild type FPV M2 = wild type FPV M2 (Influenza A virus, UniProt P03492); experiment: cell-based; assay type: cell-based
[2] = test system: VSV-G pseudotyped SIN-6.1CZW vector; assay type: cell-based
[3] = test system: VSV-G pseudotyped SIN-6.1CZW vector; assay type: cell-based; remark: listed apart in the source
VSV = conditions: cited from earlier work

Sequence of wild type FPV M2 (P03492 whole entry, looked up): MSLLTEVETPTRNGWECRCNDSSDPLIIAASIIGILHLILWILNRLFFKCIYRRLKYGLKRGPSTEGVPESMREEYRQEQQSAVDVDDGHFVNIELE

SMILES: NC12CC3CC(CC(C3)C1)C2 [amantadine]
- effect on gene transfer step of HA pseudotyped vector [1]: affected the gene transfer step; also recorded: Higher doses were required to inhibit transduction than to inhibit vector production
- inhibition of influenza virus replication in cell culture (influenza virus): effective inhibitor
- effect on vector production (wild type FPV M2): inhibits the augmentation of HA pseudotyping by M2; also recorded: potent dose-dependent effect
- inhibition at 5 µM (wild type FPV M2; read-out: inhibition of M2 augmented vector production): 70%
- effect on pseudotyping of SIN-6.1CZW by VSV-G [2]: did not affect
- effect on gene transfer by VSV-G pseudotyped vector [3]: did not affect gene transfer
- VSV replication, sensitivity to amantadine (VSV): refractory
